Here are results for seven compounds from US20110098180A1, “Herbicide-Resistant Plants, And Polynucleotides And Methods For Providing Same” (United States Department of Agriculture, priority 2002, published 2011).

The target in the assay is hydrilla PDS position 304 Arginine, His-tagged (Hydrilla verticillata, UniProt Q66PY0). The assay is described as follows: Cross-resistance testing, His-tagged column-purified PDS (Table 2A). The note with it: for R/S: Arginine at 304 (reference), Table 2A; for IC50: Arginine at 304, His-tagged, column-purified PDS, read-out: I50. It is filed as biochemical. The source says:
The alternative approach utilized His-tagging and column purification of the mutant PDS protins.
In order to express pds in bacteria, deletion clones were made for each of the three potential start codons with and without ATG. […] The forward primers used were ORF (5′ […] 3′), ORF-ATG (5′ […] 3′), 3_ORF (5′[…] 3′) and 3_ORF-ATG (5′ […] 3′). The resulting plasmids were named pORF, pORF-ATG (minus ATG codon), p3ORF and p3ORF-ATG. The pds-containing EcoRI-fragments of these plasmids were subcloned into the EcoRI site of pRSETb vector (Invitrogen) for Histidine tagging and bacterial expression. The resulting constructs were pHy4SET, pHy4SET-ATG (minus ATG), p3ORFSET and p3ORFSET-ATG.
Primers used to replace Arg by His were Hyd-His-For (5′[…] 3′) and Hyd-His-Rev (5′ […] 3′); to replace Arg by Thr we used primers Hyd-Thr-For (5′[…] 3′) and Hyd-Thr-Rev (5′[…] 3′); to replace Arg by Ser we used Hyd-Ser-For (5′[…] 3′) and Hyd-Ser-Rev (5′[…] 3′); and Arg was replaced by Cys using Hyd-Cys-For (5′[…] 3′) and Hyd-Cys-Rev (5′[…] 3′). Resulting plasmids were named: p3ORFHisSet-ATG, p3ORFThrSet-ATG, p3ORFSerSet-ATG and p3ORFCysSet-ATG.
All pRSET derived constructs were transformed into BL21(DE3)pLysS cells (Invitrogen), induced with IPTG for protein expression, and the His tag overproduced proteins analyzed by Western blot using Anti-HisG antibody (Invitrogen, cat. #R940-25).
BL21(DE3)pLysS cells were grown overnight in 500 ml Luria Broth (LB) supplemented with carbenicillin (100 mg/l) and cloramphenicol (60 mg/l) at 37° C., and induced with 0.3 mM isopropylthio-β-D-galactoside (IPTG) for 3 hrs. Cells were lysed using a French press (Spectronics Instrument) at 20,000 psi and overexpressed PDS was purified on a nickel activated Hitrap Chelating HP column according to the manufacturers instructions (Amersham Bioscience).
Generally, PDS protein fractions prepared as described above (Non-His-tagged and His-tagged) were mixed with a soluble fraction from phytoene-producing E. coli cells. […] This E. coli strain was separately cultured and lysed, and its soluble components collected (“the EB extract”) in a fashion similar to that described above for the PDS-producing cells.
His-tagged, purified proteins prepared as described above were transferred to the assay buffer on a PD10 column (Amersham Bioscience) and the concentration was adjusted to 100 μg/mL. Crude extracts containing phytoene were produced in E. coli JM101/pACCRT-EB containing geranylgeranyl pyrophosphate synthase and phytoene synthase enzymes from Erwinia uredova as described above. The reaction assays consisted of 50 μg PDS in 500 μl of assay buffer (200 mM Sodium Phosphate, pH 7.2) and 500 μl of pACCRT-EB extract. The herbicide (10 μL in MeOH) was added to the 500 μl of PDS extract and incubated on ice for 15 minutes prior to mixing it with the EB extract. […] Dose-response curves were fitted to the four-parameter logistic function. […] I^50 values were calculated from the regressions.

Sequence of hydrilla PDS position 304 Arginine, His-tagged (Q66PY0 77-580): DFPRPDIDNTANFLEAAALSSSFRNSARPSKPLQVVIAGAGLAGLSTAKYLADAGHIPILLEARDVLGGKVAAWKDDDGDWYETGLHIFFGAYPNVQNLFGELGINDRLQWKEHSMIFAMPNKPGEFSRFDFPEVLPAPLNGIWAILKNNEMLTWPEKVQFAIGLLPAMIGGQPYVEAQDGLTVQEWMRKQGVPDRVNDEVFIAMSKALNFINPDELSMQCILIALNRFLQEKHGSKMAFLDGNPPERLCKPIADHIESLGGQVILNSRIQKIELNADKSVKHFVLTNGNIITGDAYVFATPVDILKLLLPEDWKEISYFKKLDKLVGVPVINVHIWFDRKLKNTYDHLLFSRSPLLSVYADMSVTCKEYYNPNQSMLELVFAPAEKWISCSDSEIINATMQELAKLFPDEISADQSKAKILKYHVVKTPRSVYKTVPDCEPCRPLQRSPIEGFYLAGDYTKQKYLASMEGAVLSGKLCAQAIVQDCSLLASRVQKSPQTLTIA

Regarding `CCC(Oc1ccc(F)c(C(F)(F)F)c1)C(=O)NCc1ccccc1` (centres unmarked) [Beflubutamid], the R/S worked out at 1 and the IC50 was found to be 72 µM.

On to `O=C(Nc1ccc(F)cc1F)c1cccnc1Oc1cccc(C(F)(F)F)c1` [Diflufenican], for which the IC50 was found to be 101 µM. The R/S (30 min) is on record as 1.

Regarding `O=C1C(Cl)C(CCl)CN1c1cccc(C(F)(F)F)c1` (centres unmarked) [Fluorochloridone], the IC50 was 130 µM. Besides, where the note is “30 min”, the R/S amounted to 1.

For the compound `CNC1=C(c2cccc(C(F)(F)F)c2)C(=O)C(c2ccccc2)O1` (centres unmarked) [Flurtamone], the IC50 came out at 300 µM. The compound further came in with a R/S (30 min) of 1.

For `CNc1cnn(-c2cccc(C(F)(F)F)c2)c(=O)c1Cl` [Norflurazon], the IC50 worked out at 50 µM.

For `O=C(Nc1ccc(F)cc1)c1cccc(Oc2cccc(C(F)(F)F)c2)n1` [Piconilafen, Picolinafen], the IC50 came to 327 µM.

For Fluridone, the R/S (30 min) is reported as 1.
